The text below walks through data of patent US20070021419A1, “2-Aminophenyl-4-phenylpyrimidines as kinase inhibitors” (Cyclacel Limited, priority 2003, published 2007).

Experiment [1] concerns Saos-2. Briefly: 72-h MTT cytotoxicity assay, Saos-2. The note with it: Homo sapiens, read-out: 72-h MTT IC50 Saos-2, Saos-2 cell line. The class given is cell-based. The procedure: (§1) The compounds from the examples above were subjected to a standard cellular proliferation assay using human tumour cell lines obtained from the ATCC (American Type Culture Collection, 10801 University Boulevard, Manessas, Va. 20110-2209, USA). Standard 72-h MTT (thiazolyl blue; 3-[4,5-dimethylthiazol-2-yl]-2,5-diphenyltetrazolium bromide) assays were performed. In short: cells were seeded into 96-well plates according to doubling time and incubated overnight at 37° C. Test compounds were made up in DMSO and a 1/3 dilution series prepared in 100 μL cell media, added to cells (in triplicates) and incubated for 72 ho at 37° C. MTT was made up as a stock of 5 mg/mL in cell media and filter-sterilised. Media was removed from cells followed by a wash with 200 μL PBS. MTT solution was then added at 20 μL per well and incubated in the dark at 37° C. for 4 h. MTT solution was removed and cells again washed with 200 μL PBS. MTT dye was solubilised with 200 μL per well of DMSO with agitation.

Experiment [2] relates to HT29. Kind of experiment: 72-h MTT cytotoxicity assay, HT29. The note with it: Homo sapiens, HT-29, read-out: 72-h MTT IC50 HT29, HT29 cell line. Type of experiment: cell-based. As to the method: as §1
For orientation: Tetrazolium dyes change colour on reduction, which living cells bring about.

For experiment [3], the system named is transformed human cell lines (A549, HT29, Saos-2). Kind of experiment: 72-h MTT cytotoxicity assay, average of cell lines. The class given is cell-based. The note with it: read-out: 72-h MTT IC50 Average, average of A549, HT29, Saos-2. As to the method: as §1
Experiment [4] concerns A549. Kind of experiment: 72-h MTT cytotoxicity assay, A549. Type of experiment: cell-based. The following applies: Homo sapiens, read-out: 72-h MTT IC50 A549, A549 cell line. The procedure: as §1
For experiment [5], the target named is CDK2/cyclin E (Homo sapiens, UniProt P24941). Kind of experiment: Kinase assay, radioactive phosphate incorporation, CDK2/cyclin E. Type of experiment: biochemical. The note with it: 100 μM ATP, 30° C.; read-out: Kinase inhibition IC50 CDK2/cyclin E. As to the method: (§2) The compounds from the examples above were investigated for their ability to inhibit the enzymatic activity of various protein kinases. This was achieved by measurement of incorporation of radioactive phosphate from ATP into appropriate polypeptide substrates. Recombinant protein kinases and kinase complexes were produced or obtained commercially. Assays were performed using 96-well plates and appropriate assay buffers (typically 25 mM β-glycerophosphate, 20 mM MOPS, 5 MM EGTA, 1 mM DTT, 1 mM Na3VO3, pH 7.4), into which were added 2-4 μg of active enzyme with appropriate substrates. The reactions were initiated by addition of Mg/ATP mix (15 mM MgCl2+100 μM ATP with 30-50 kBq per well of [γ-^32P]-ATP) and mixtures incubated as required at 30° C. Reactions were stopped on ice, followed by filtration through p81 filterplates or GF/C filterplates (Whatman Polyfiltronics, Kent, UK). After washing 3 times with 75 mM aq orthophosphoric acid, plates were dried, scintillant added and incorporated radioactivity measured in a scintillation counter (TopCount, Packard Instruments, Pangbourne, Berks, UK). Compounds for kinase assay were made up as 10 mM stocks in DMSO and diluted into 10% DMSO in assay buffer.

In experiment [6] the target is GSK3β (Homo sapiens, UniProt P49841). Kind of experiment: Kinase assay, radioactive phosphate incorporation, GSK3β. Type of experiment: biochemical. The following applies: 100 μM ATP, 30° C.; read-out: Kinase inhibition IC50 GSK3β. The procedure:
as §2

Experiment [7] concerns the target CDK7/cyclin H (Homo sapiens, UniProt P50613). Briefly: Kinase assay, radioactive phosphate incorporation, CDK7/cyclin H. The following applies: 100 μM ATP, 30° C.; read-out: Kinase inhibition IC50 CDK7/cyclin H. The class given is biochemical. The procedure: as §2
Experiment [8] concerns the target CDK9/cyclin T1 (Homo sapiens, UniProt P50750). Briefly: Kinase assay, radioactive phosphate incorporation, CDK9/cyclin T1. Type of experiment: biochemical. The following applies: 100 μM ATP, 30° C.; read-out: Kinase inhibition IC50 CDK9/cyclin T1. As to the method: as §2
Experiment [9] concerns the target CDK4/cyclin D1 (Homo sapiens, UniProt P11802). Kind of experiment: Kinase assay, radioactive phosphate incorporation, CDK4/cyclin D1. Type of experiment: biochemical. The note with it: 100 μM ATP, 30° C.; read-out: Kinase inhibition IC50 CDK4/cyclin D1. The procedure: as §2
Experiment [10] concerns the target CDK2/cyclin A (Homo sapiens, UniProt P24941). Kind of experiment: Kinase assay, radioactive phosphate incorporation, CDK2/cyclin A. The following applies: 100 μM ATP, 30° C.; read-out: Kinase inhibition IC50 CDK2/cyclin A. Type of experiment: biochemical. As to the method:
as §2

Chain of CDK4/cyclin D1 (P11802 whole entry, species assumed): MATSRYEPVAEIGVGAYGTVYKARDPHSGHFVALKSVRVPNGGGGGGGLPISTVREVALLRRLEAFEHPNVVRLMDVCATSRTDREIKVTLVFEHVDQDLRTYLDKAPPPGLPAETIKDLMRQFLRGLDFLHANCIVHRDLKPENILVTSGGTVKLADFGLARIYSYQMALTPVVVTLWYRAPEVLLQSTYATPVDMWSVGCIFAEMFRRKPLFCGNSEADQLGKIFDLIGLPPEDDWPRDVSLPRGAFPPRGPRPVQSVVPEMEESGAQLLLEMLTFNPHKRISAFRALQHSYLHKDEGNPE
Chain of CDK4/cyclin D1 (P24385 whole entry partner, species assumed): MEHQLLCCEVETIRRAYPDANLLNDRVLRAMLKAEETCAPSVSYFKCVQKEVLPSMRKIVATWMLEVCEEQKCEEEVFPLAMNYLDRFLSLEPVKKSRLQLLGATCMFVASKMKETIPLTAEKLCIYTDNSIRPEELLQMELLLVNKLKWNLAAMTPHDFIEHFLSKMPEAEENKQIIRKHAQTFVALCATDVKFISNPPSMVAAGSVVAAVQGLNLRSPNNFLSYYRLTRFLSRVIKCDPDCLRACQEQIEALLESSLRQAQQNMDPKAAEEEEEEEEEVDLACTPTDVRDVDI
Chain of CDK9/cyclin T1 (P50750 whole entry, species assumed): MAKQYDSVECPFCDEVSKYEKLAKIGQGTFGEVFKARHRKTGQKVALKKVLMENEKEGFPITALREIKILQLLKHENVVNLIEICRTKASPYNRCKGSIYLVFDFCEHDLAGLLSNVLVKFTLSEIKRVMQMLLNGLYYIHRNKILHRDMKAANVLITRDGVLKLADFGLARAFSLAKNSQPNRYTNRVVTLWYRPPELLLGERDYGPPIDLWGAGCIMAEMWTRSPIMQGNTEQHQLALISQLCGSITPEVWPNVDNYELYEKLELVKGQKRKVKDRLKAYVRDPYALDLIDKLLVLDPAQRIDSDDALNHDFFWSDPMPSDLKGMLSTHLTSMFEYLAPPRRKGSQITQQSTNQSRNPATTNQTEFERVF
Chain of CDK9/cyclin T1 (O60563 whole entry partner, species assumed): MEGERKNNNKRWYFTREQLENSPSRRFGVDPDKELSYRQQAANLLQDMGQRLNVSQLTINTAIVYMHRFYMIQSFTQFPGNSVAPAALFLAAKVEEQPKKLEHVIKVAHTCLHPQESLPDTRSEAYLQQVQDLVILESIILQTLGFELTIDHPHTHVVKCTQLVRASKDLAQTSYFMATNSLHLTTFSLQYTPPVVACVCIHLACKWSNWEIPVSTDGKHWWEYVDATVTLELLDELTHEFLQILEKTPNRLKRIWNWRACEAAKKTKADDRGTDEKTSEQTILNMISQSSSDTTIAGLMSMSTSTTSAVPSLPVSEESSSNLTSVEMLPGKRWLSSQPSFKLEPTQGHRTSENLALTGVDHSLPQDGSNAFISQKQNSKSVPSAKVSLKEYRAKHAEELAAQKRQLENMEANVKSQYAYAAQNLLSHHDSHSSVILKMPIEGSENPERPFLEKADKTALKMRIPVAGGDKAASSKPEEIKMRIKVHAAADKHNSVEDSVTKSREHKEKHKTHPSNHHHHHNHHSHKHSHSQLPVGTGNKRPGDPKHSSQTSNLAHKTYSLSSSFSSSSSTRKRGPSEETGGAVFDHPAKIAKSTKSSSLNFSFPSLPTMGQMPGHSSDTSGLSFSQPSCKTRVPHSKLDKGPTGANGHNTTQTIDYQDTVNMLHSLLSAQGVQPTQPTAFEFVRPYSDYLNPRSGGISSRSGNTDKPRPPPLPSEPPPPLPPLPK
Chain of CDK7/cyclin H (P50613 whole entry, species assumed): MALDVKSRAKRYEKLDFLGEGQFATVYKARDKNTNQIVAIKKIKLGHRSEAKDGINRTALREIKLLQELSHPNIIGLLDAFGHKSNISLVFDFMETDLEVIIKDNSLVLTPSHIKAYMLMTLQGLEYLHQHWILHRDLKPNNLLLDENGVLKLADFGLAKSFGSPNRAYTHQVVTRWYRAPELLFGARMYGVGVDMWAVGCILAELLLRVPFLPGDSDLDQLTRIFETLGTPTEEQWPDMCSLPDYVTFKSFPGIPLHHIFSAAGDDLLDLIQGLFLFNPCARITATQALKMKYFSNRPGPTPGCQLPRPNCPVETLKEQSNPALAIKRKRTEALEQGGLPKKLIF
Chain of CDK7/cyclin H (P51946 whole entry partner, species assumed): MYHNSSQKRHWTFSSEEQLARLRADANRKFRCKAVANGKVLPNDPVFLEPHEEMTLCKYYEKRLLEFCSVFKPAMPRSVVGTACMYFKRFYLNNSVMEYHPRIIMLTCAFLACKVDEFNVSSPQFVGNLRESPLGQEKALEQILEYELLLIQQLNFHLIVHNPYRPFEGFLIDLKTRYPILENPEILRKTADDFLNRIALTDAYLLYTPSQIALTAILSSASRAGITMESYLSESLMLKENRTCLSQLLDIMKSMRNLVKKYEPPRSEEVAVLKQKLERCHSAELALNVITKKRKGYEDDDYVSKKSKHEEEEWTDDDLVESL
Chain of GSK3β (P49841 whole entry, species assumed): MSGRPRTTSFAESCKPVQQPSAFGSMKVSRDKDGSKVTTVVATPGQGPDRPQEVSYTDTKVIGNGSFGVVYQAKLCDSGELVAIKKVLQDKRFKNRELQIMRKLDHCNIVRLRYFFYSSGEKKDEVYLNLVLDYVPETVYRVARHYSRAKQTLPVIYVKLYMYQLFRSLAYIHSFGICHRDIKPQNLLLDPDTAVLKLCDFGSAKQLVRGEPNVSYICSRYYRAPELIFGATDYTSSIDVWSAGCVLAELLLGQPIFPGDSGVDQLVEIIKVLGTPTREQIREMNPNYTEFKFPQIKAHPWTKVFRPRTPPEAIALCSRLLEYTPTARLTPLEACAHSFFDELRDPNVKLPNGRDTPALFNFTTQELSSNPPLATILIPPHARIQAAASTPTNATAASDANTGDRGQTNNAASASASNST

Regarding `O=[N+]([O-])c1cccc(-c2ccnc(Nc3ccc(O)cc3)n2)c1` [Compound 1, 4-[4-(3-Nitro-phenyl)-pyrimidin-2-ylamino]-phenol], the IC50 in experiment [1] was determined as 44.2 µM; in experiment [2], 22.9 µM; in experiment [3] it was 27.2 ± 15.3 µM; in [4] it was 14.5 µM; in experiment [5], 1.6 µM.

As for `O=[N+]([O-])c1cccc(Nc2nccc(-c3cccc(Cn4cncn4)c3)n2)c1` [Compound 30, (3-Nitro-phenyl)-[4-(3-[1,2,4]triazol-1-ylmethyl-phenyl)-pyrimidin-2-yl]-amine], the IC50 in experiment [1] amounted to 4.4 µM; in experiment [6], 0.019 µM; in experiment [2], 7.1 µM; in experiment [7], 0.57 µM; in [3], 6.5 ± 1.8 µM; in experiment [4] it was 8 µM. Besides, the results for the IC50 in [8] and in experiment [5] were 0.002 µM and 0.04 µM, respectively.

Take `c1cc(Cn2cncn2)cc(-c2ccnc(Nc3ccc(N4CCOCC4)cc3)n2)c1` [Compound 32, (4-Morpholin-4-yl-phenyl)-[4-(3-[1,2,4]triazol-1-ylmethyl-phenyl)-pyrimidin-2-yl]-amine]: the IC50 was 40.3 µM in experiment [1]; 0.37 µM in experiment [6]; 6.1 µM in [2]; 4 µM in experiment [7]; 22 ± 17.2 µM in experiment [3]; 19.7 µM in [4]. The IC50 in [9] was found to be 2.2 µM; in experiment [8] it was 0.42 µM; in experiment [5] it was 4.4 µM.

`c1ccc(Nc2nccc(-c3ccccc3)n2)cc1` [Compound 37, Phenyl-(4-phenyl-pyrimidin-2-yl)-amine]: the IC50 in [1] is 60.7 µM; in [2], 15.2 µM; in experiment [3], 32.6 ± 24.5 µM; in experiment [4] it was 22 µM; in [5] it was 18 µM.

As for `CN(C)c1ccc(Nc2nccc(-c3cccc(Cn4cncn4)c3)n2)cc1` [Compound 43, N,N-Dimethyl-N′-[4-(3-[1,2,4]triazol-1-ylmethyl-phenyl)-pyrimidin-2-yl]-benzene-1,4-diamine], the IC50 in experiment [1] amounted to 30.9 µM; in experiment [6], 0.19 µM; in [2], 7.8 µM; in experiment [7], 1.4 µM; in [3], 17.9 ± 11.8 µM; in [4], 14.9 µM. The IC50 in experiment [9] was 1.9 µM; in experiment [8], 0.53 µM; in [5] it was 3.7 µM.

`COc1ccc(OC)c(-c2ccnc(Nc3cccc([N+](=O)[O-])c3)n2)c1` [Compound 44, [4-(2,5-Dimethoxy-phenyl)-pyrimidin-2-yl]-(3-nitro-phenyl)-amine]: the IC50 was determined as 1 µM in experiment [1]; 0.49 µM in experiment [6]; 1.3 µM in experiment [2]; 1.3 ± 0.3 µM in [3]; 1.5 µM in experiment [4]; 17 µM in experiment [5].

Take `COc1ccc(OC)c(-c2ccnc(Nc3ccc(O)cc3)n2)c1` [Compound 45, 4-[4-(2,5-Dimethoxy-phenyl)-pyrimidin-2-ylamino]-phenol]: the IC50 in experiment [1] worked out at 17.4 µM; in experiment [6], 3.6 µM; in [2], 8.1 µM; in experiment [7] it was 16 µM; in experiment [3], 17.1 ± 8.9 µM; in experiment [4] it was 25.9 µM. Moreover, the IC50 in experiment [9] turned out to be 28 µM; in experiment [8] it was 25 µM; in experiment [5], 5.8 µM.

`O=[N+]([O-])c1cccc(Nc2nccc(-c3ccc(Cl)c(Cn4cncn4)c3)n2)c1` [Compound 47, [4-(4-Chloro-3-[1,2,4]triazol-1-ylmethyl-phenyl)-pyrimidin-2-yl]-(3-nitro-phenyl)-amine]: the IC50 in experiment [6] turned out to be 0.13 µM; in experiment [7], 20 µM; in experiment [9], 28 µM; in [8], 1.3 µM; in experiment [5], 1.4 µM.

On to `COc1ccc(Nc2nccc(-c3cccc(Cn4cncn4)c3)n2)cn1` [Compound 50, (6-Methoxy-pyridin-3-yl)-[4-(3-[1,2,4]triazol-1-ylmethyl-phenyl)-pyrimidin-2-yl]-amine], for which the IC50 in experiment [1] amounted to 33.8 µM; in experiment [6], 0.084 µM; in [2], 11.9 µM; in experiment [7], 0.65 µM; in experiment [3], 20 ± 12 µM; in experiment [4] it was 14.3 µM. Further, the IC50 in experiment [9] was 9.4 µM; in experiment [8], 0.044 µM; in [5] it was 1.8 µM.

Regarding `COc1ccc(Nc2nccc(-c3cccc(C#N)c3)n2)cn1` [Compound 51, 3-[2-(6-Methoxy-pyridin-3-ylamino)-pyrimidin-4-yl]-benzonitrile], the IC50 in [1] amounted to 67 µM; in experiment [6], 0.37 µM; in [2], 10.3 µM; in experiment [7] it was 28 µM; in experiment [3], 37.7 ± 28.4 µM; in experiment [4] it was 35.7 µM. The values for the IC50 in experiment [8] and in [5] were 3 µM and 7 µM, respectively.

`COc1ccc(OC)c(-c2ccnc(Nc3ccc(OC)nc3)n2)c1` [Compound 52, [4-(2,5-Dimethoxy-phenyl)-pyrimidin-2-yl]-(6-methoxy-pyridin-3-yl)-amine]: the IC50 in [1] amounted to 14.9 µM; in experiment [2], 10.8 µM; in experiment [3], 15.4 ± 4.9 µM; in [4], 20.5 µM; in [8] it was 16 µM.

With `CN(Cc1cccc(-c2ccnc(Nc3cccc([N+](=O)[O-])c3)n2)c1)S(=O)(=O)c1cccc([N+](=O)[O-])c1` [Compound 85, N-Methyl-3-nitro-N-{3-[2-(3-nitro-phenylamino)-pyrimidin-4-yl]-benzyl}-benzenesulfonamide], the IC50 in experiment [1] is 44.6 µM; in experiment [2] it was 10.4 µM; in experiment [3] it was 44 ± 33.3 µM; in experiment [4] it was 76.9 µM; in [8], 0.4 µM.

As for `COc1ccc(-c2ccnc(Nc3cccc([N+](=O)[O-])c3)n2)cc1` [Compound 94, [4-(4-Methoxy-phenyl)-pyrimidin-2-yl]-(3-nitro-phenyl)-amine], the IC50 in [6] worked out at 0.03 µM; in experiment [7], 0.99 µM; in experiment [10], 0.93 µM; in [8] it was 0.02 µM; in [5] it was 0.3 µM.

Take `OCC1CCCCN1Cc1cccc(-c2ccnc(Nc3ccc(N4CCOCC4)cc3)n2)c1` (stereo not shown) [Compound 101, (1-{3-[2-(4-Morpholin-4-yl-phenylamino)-pyrimidin-4-yl]-benzyl}-piperidin-2-yl)-methanol]: the IC50 in experiment [1] amounted to 25 µM; in [2] it was 6 µM; in [7], 1.6 µM; in experiment [3], 16.1 ± 9.6 µM; in [4], 17.3 µM; in experiment [8], 2.9 µM.

For the molecule `COc1ccc(Nc2nccc(-c3cccc(CN4CCCCC4CO)c3)n2)cn1` (stereo not shown) [Compound 102, (1-{3-[2-(6-Methoxy-pyridin-3-ylamino)-pyrimidin-4-yl]-benzyl}-piperidin-2-yl)-methanol], the IC50 came out at 23.4 µM in [1]; 11.1 µM in experiment [2]; 1.4 µM in [7]; 17.2 ± 6.2 µM in experiment [3]; 17 µM in experiment [4]; 0.49 µM in experiment [8].

Turning to `OCC1CCCCN1Cc1cccc(-c2ccnc(Nc3cccc(O)c3)n2)c1` (stereo not shown) [Compound 103, 3-{4-[3-(2-Hydroxymethyl-piperidin-1-ylmethyl)-phenyl]-pyrimidin-2-ylamino}-phenol], the IC50 is 5.6 µM in experiment [1]; 7 µM in [2]; 0.64 µM in experiment [7]; 6.5 ± 0.8 µM in experiment [3]; 6.9 µM in experiment [4]; 0.14 µM in [8].
